Measurements taken from patent US11857601B2, “Pharmaceutical composition for cancer treatment comprising fusion protein including IL-2 protein and CD80 protein and anticancer drug” (GI INNOVATION, INC., priority 2020, dated 2024).
“Also recorded” adds a separate entry of the source.

Tests used:
MC38 = test: mGI101 and anti-PD-1 antibody in MC38 allotransplanted tumor model; assay type: in vivo, C57BL/6 mice
Method: Rodent-derived colorectal cancer cells, MC38, were purchased from Kerafast (USA) and used for the test. MC38 cells were cultured in RPMI1640 medium (Gibco) containing 10% fetal bovine serum (Gibco) and 1% antibiotic/antifungal agent (Gibco). The cultured cells were harvested using trypsin and then suspended in PBS. In order to establish an allotransplanted tumor model, 1×10^6 MC38 cells were subcutaneously injected into the right flank of C57BL/6 female mice (7-week-old).
The mice were randomly assigned based on tumor volume (30 mm^3), each group including 5 mice. The tumor grafts were identified about day 2 after cell inoculation.
Clinical symptoms such as a disease and a behavioral change were observed once a day during the test period, and deceased animals were identified. At the end of the test period, the animals were sacrificed. The size of the MC38 solid cancer was measured using a tumor 3D scanner (TM900, Peria, Belgium). […] The anti-tumor efficacy was evaluated as compared with the vehicle control. All statistical calculations were performed using Prism 8.0 (Graph Pad Software Inc, USA). The comparison of tumor volume measurements was made through one-way analysis of variance (at the end of this test) followed by Bonferroni's multiple comparison test. A p value of less than 0.05 was considered significant.

CT-26 cancer cell line = test: mGI101 in mice transplanted with CT-26 (Exp. Ex. 19); assay type: in vivo, BALB/c mice
IL-2Rβ = target: T1, IL-2Rβ (Homo sapiens, UniProt P14784); test: Binding to IL-2Rβ (Octet, Ni-NTA biosensor); conditions: as compared with GI101w and Proleukin
T1 construct: purchased Acro CD2-H5221
T1 sequence (P14784 27-551): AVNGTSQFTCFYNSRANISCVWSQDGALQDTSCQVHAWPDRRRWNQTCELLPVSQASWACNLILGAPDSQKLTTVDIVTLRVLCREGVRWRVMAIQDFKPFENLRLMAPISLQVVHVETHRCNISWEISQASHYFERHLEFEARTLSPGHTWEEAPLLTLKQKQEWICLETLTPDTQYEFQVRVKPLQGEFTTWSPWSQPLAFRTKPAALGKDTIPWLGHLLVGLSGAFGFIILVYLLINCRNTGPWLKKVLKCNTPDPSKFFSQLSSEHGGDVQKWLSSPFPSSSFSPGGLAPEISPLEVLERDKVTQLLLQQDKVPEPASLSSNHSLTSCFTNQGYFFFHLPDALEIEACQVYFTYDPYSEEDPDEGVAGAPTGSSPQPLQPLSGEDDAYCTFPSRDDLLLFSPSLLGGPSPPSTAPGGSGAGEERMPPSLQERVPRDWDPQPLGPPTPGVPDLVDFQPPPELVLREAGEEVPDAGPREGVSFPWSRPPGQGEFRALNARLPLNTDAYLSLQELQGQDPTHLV
Method: The binding ability for IL-2Rα was measured using the AR2G biosensor, and the binding ability for IL-2Rβ was measured using the Ni-NTA biosensors (Nickel charged Tris-NTA, Ni-NTA Biosensors, ForteBio, 18-5101).
Meanwhile, a ligand (IL-2Rβ-His Tag, Acro, Cat: CD2-H5221) to be attached to the Ni-NTA biosensor was diluted with 1×Ni-NTA kinetic buffer to a concentration of 5 μg/ml. The diluted ligand was loaded on the Ni-NTA biosensor for 600 seconds and fixed.
Thereafter, GI101, GI101w, or Proleukin (Novartis, hIL-2), at various concentrations, to be attached to the ligand was loaded thereon for 300 seconds. Then, binding thereof was measured and dissociation thereof was also measured for 300 seconds. Binding kinetics analysis was performed using Octet Data Analysis HT software ver. 10 provided by Pall Corporation. The results are illustrated in FIGS. 22 to 24.

Human CTLA-4 = target: T2, Human CTLA-4 (Homo sapiens, UniProt P16410); test: Binding ability to CTLA-4 (Octet RED 384)
T2 construct: purchased Sino Biological 11159-H08H
T2 sequence (P16410 36-223): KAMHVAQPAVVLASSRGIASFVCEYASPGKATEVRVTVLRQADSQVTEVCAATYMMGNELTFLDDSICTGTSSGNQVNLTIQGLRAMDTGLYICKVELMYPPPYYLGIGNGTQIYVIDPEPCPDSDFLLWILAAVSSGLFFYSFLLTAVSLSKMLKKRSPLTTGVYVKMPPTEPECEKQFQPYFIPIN
Method: In order to identify the binding affinity between the fusion protein and its ligand, the binding affinity was measured using Octet RED 384.
AR2G biosensor (Amine Reactive 2nd gen, ForteBio, Cat: 18-5092) was previously hydrated with 200 μl of distilled water in a 96-well microplate (GreinerBio-one, Cat: 655209). A ligand (CTLA-4, Human CTLA-4/CD152, His tag, Sino Biological, Cat: 11159-H08H) to be attached to the AR2G biosensor was diluted with 10 mM acetate buffer (pH 5, AR2G reagent Kit, ForteBio, Cat: 18-5095) to a concentration of 5 μg/ml. […] Activation buffer was prepared by mixing 20 mM EDC and 10 mM s-NHS (AR2G reagent Kit, ForteBio, Cat: 18-5095) in distilled water. 80 μl of each reagent was placed in a 384-well microplate (GreinerBio-one, Cat: 781209) and the program was set up.
Binding kinetics measurements were performed using the Octet RED 384 instrument (ForteBio, Pall Life Science) with agitation at 30° C. and 1,000 rpm. The binding ability for CTLA-4 was measured using the Amine Reactive 2 generation (AR2G) biosensor chip, and the binding ability for PD-L1 was measured using the Nickel charged Tris-NTA (Ni-NTA) biosensor chip. The AR2G biosensor chip was activated with a combination of 400 mM EDC and 100 mM sulfo-NHS. […]

Substance	anticancer effect / anti-tumor efficacy (MC38; 16 days, mGI101 6 mpk alone, anti-PD-1 5 mpk, combination mGI101 0.6 mpk + anti-PD-1 5 mpk, vs control)	individual tumor sizes (MC38; mGI101 6 mpk alone (compared with anti-PD-1 group), anti-PD-1 5 mpk, combination 0.6 mpk + 5 mpk)	health state of test animals after administration (MC38; mGI101 alone and in combination with anti-PD-1 antibody, i.p.)	tumor volume / tumor size (CT-26 cancer cell line; 6 mg/kg i.v., vs negative control)	tumor growth inhibition rate / anticancer efficacy (CT-26 cancer cell line; compared with combination of mCD80 4.9 mg/kg and Fc-IL-2v (GI101C2) 2.8 mg/kg)	tumor inhibitory efficacy (CT-26 cancer cell line; compared with respective mCD80 and IL-2v single formulations)	binding ability for IL-2Rβ (IL-2Rβ)	binding ability for CTLA-4 (Human CTLA-4)
mGI101: fusion protein: mouse CD80, Ig hinge, Fc domain, linker, IL-2 variant (2M) (R38A, F42A); SEQ ID NO: 15	anticancer effect was also shown	more excellent tumor growth inhibitory effect	healthy state without signs of pathological abnormalities	significant inhibition of tumor size	excellent tumor growth inhibition rate; also recorded: excellent anticancer efficacy	had tumor inhibitory efficacy	–	–
GI101: fusion protein: human CD80 fragment, Ig hinge, Fc domain, linker, IL-2 variant (2M) (R38A, F42A); SEQ ID NO: 9	–	–	–	–	–	–	high binding ability	high binding ability
